These results are taken from patent publication US20160129005A1, “ADENINE DERIVATIVES HAVING IMMUNOMODULATING ANTI-INFLAMMATORY AND ANALGESIC ACTIVITY” (MEDESTEA RESEARCH & PRODUCTION S.p.A., priority 2011, published 2016).

The structures appear in SMILES notation.

The test system of one data set is dendritic cells (DCs). Briefly: Maturation of dendritic cells (flow cytometry of membrane antigens). The format is cell-based. The method, then:
The effect of […] on the various stages of maturation of the DCs was evaluated. The study was carried out using flow cytometry by analysing the principal membrane antigens characterizing the stage of differentiation and maturation of the DCs.
The DCs were obtained from peripheral whole blood and were plated in a suitable medium (DC medium). The immature DCs (DCi) on day 6 of culture were collected, analysed in the cytofluorimeter and were brought to maturation by stimulation with LPS 10 μg/ml overnight (O.N.). […] 300 μM was added to DC medium during the last 5 hours or simultaneously with maturation of the DCi with LPS (10 μg/ml) overnight. CD1a is a marker of immaturity specific to the DCs, expression of which decreases in mature DCs.
CD80 and CD86 are fundamental co-stimulatory molecules in the process of antigen presentation, and expression of them generally increases in mature DCs compared to immature DCs.

A further data set relates to mice. Briefly: COPD: chronic smoke exposure (6 months), lung morphometry and histology. Format: in vivo, mouse. Particulars: smoke 6 months, 4 mg/kg i.p. before daily exposure. As for the experimental part:
The activity of […] was also tested in a model of chronic exposure, which is closer to the aetiology of the human disorder. The mice were exposed to the smoke of 3 cigarettes a day or air for 5 days a week for 6 months, and were treated 30 minutes before the daily exposure with […] 4 mg/kg i.p.
At the end of the 6 months, the mice were sacrificed and a morphometric and histologic examination was conducted on the lung tissue.
The mean interalveolar distance (Lm) and mean internal surface area of the lung (ISA) were measured, being parameters that are correlated with degeneration of lung tissue and with the resultant decrease in respiratory function.

The test system of another data set is murine neuroblastoma. Particulars: tissue cultures; Mirkin et al., Cancer Research 47, 1987; cited from earlier work.
For data set [1], the system named is lymphopenic mice with deletion of cd3ε. Nature of the data set: Chronic intestinal inflammation by transfer of naive CD4 cells. The format is in vivo, mouse. From the text:
To study the effect of […] in idiopathic inflammatory diseases of the intestine, such as Crohn's disease and ulcerative colitis, we used lymphopenic mice with deletion of cd3ε. T lymphocytes are not present in these animals, and transfer of naive CD4 cells causes chronic intestinal inflammation. The simultaneous transfer of regulatory T cells (Treg) CD4^+CD25^+ […] the onset of the disease. […] Compared to mice reconstituted with naive CD4 and Treg cells (healthy controls), mice reconstituted with naive CD4 cells and treated with carriers show a severe oedematous-haemorrhagic picture of the colon with splenomegaly and lymphadenomegaly. […] The accumulation of Alcian-positive mucus filaments is visible inside the lumen of the cryptae (arrowheads). In the mice injected with CD4 cells and treated with carriers, muciparous goblet cells have completely disappeared along the cryptae. The cryptae are markedly hyperplasic with intensive cellular crowding, stratification, obliteration of the lumen (arrowheads), and a high frequency of mitotic cells is encountered (arrows). […] The cryptae are moderately hyperplasic and mucus filaments can be seen inside the lumen of the cryptae (arrowheads).

The subject of another data set is Lewis rats. Nature of the data set: Acute experimental autoimmune encephalomyelitis (MBP/CFA). Format: in vivo, rat. Particulars: for peak of neurologic damage (neuroclinical score 0-5): vehicle peak 3 (day 13). The method, then: We investigated whether treatment with […], at the onset of the acute form of experimental autoimmune encephalitis (EAE), the murine model of human multiple sclerosis, could induce a functional recovery.
The motor and sensory deficits were classified according to previously assigned “neuronal” clinical scores.
Adult female Lewis rats (200-250 g) were immunized with an intradermal injection, in the hind limbs, of […] of myelin basic protein (MBP) dissolved in 50 microlitres of emulsified saline solution in 50 microlitres of complete Freund adjuvant (CFA).
Starting from the fifth day post-inoculation, the rats were treated daily with […] (0.1 or 1 mg/kg per os) or with the placebo (vehicle).
The animals were monitored daily until day 21 for clinical symptoms; the range of neuroclinical scores extended from 0 (no neurologic symptom) up to a maximum of 5 (complete paralysis of all legs or death).
Inoculation with the MBP/CFA emulsion led to a very evident loss of body weight; this was not changed by the treatment with Immuflam. The animals were divided into three groups of 15: group 1 Immuflam 0.1 mg/kg, group 2 Immuflam 1 mg/kg, group 3 vehicle. They were all treated daily per os from day 5 until sacrifice.

The next data set relates to U937 cells. Nature of the data set: Secretion of pro-inflammatory cytokines by LPS-stimulated U937 cells (ELISA). Format: cell-based, human. The settings on record: drug with LPS (12 hrs) or added after LPS for 2 or 6 hours, FIG. 1. The method, then: The production in vitro of MCP-1 (monocyte chemoattractant protein-1), TNF-α (tumour necrosis factor alpha), IL-6 (interleukin 6) was analysed. These cytokines induce the production of other cytokines that attract leukocytes to the site of inflammation, potentiating the immune response. This amplifies leukocyte “recruitment” at the site of inflammation, promoting “extravasation” of immune cells from the peripheral circulation.
The U937 cells were plated at a density of 250 000 cells/ml and left in quiescence for 24 hours.
The drug was added in fresh medium, simultaneously or after removal of LPS from the culture. The cells were kept in an incubator at 37° C. with supply of CO2 at 5%.
Analysis of the production of growth factors was performed on the cellular supernatants collected, by ELISA assay using commercial kits (Human TNF-α Quantikine ELISA Kit code DTA00C, R&D Systems assay. Human IL-6 Quantikine ELISA Kit code D6050, R&D Systems assay. Human CCL2/MCP-1 Quantikine ELISA Kit code DCP00, R&D Systems assay).
For orientation: An ELISA detects its analyte on a solid surface through an enzyme-linked reagent.

In the case of `C=C(C=O)OC(C=O)n1cnc2c(N)ncnc21` (stereo not drawn) [2-[1-(6-aminopurin-9-yl)-2-oxoethoxy]prop-2-enal], in the data set with dendritic cells (DCs) (300 μM), the “modulation of CD40 (negative regulation)” value is given as “less marked” and the “modulation of CD54 (negative regulation)” value was “less marked”. For the same molecule, the “class I histocompatibility antigen” value with dendritic cells (DCs) (300 μM, both overnight and at 5 hours) was “decreases”. In the data set with dendritic cells (DCs) (DCs matured with LPS, 300 μM), the CD80 expression result is “no effects on CD80” and the CD86 expression entry is recorded as “negative regulation of CD86”. Also, in the data set on dendritic cells (DCs) (DCs matured with LPS, IMMUFLAM 300 μM at 5 hrs, vs LPS alone), the “CD1a expression (marker of immaturity)” value was “shown to increase”. Moreover, in the data set with mice, the “ISA (mean internal surface area of the lung)” value worked out at 1153 ± 59 cm^2 and the “Lm (mean interalveolar distance)” value is recorded as 36.3 ± 1.1 μm. Also, in the data set on murine neuroblastoma, the cytotoxic activity entry was “cytotoxic activity”. In data set [1] (mice injected with CD4 cells), the “colon sections stained with Alcian-PAS” value is on record as “muciparous goblet cells positive to Alcian-PAS are identifiable along the cryptae”. Also, the “macroscopic appearance of colon, spleen and lymph nodes” value in data set [1] (treatment two weeks after injection of naive CD4 cells, FIG. 31) was “dramatic improvement of the inflammation of the colon”. The “histological scores (0-4, Asseman)” value in data set [1] (vs carriers, no significant difference to healthy control) is recorded as “significant improvement of the lesions”. Further, the “clinical scores vs vehicle groups” value with Lewis rats (between day 12 and day 15, FIG. 4) is listed as “significant differences”. Moreover, the “peak of neurologic damage (neuroclinical score 0-5)” value in the data set with Lewis rats (group 1, 0.1 mg/kg per os daily from day 5) stood at 2.3. Further, the “peak of neurologic damage (neuroclinical score 0-5)” value in the data set with Lewis rats (group 2, 1 mg/kg per os daily from day 5) was 1.5. In addition, in the data set with U937 cells, the “cellular secretion of IL-6” value is given as “reduces the cellular secretion”, the “cellular secretion of MCP-1” value is “reduces the cellular secretion” and the “cellular secretion of TNF-α” value is given as “reduces the cellular secretion”.
